For 17 compounds, IC50 and inhibition in vivo results are on record in ChEMBL document CHEMBL1155921, “Synthesis and biological evaluation of novel 1-O- and 14-O-derivatives of oridonin as potential anticancer drug candidates” (Bioorg Med Chem Lett, 2008).

As a reminder, the IC50 is the concentration that inhibits the measured activity by half.

A short description of experiment [1]: Cytotoxicity against human BGC-7901 cells by MTT assay. The class given is functional, cell-based. (Formazan colour is commonly taken as a measure of viable cells.)
Experiment [2] relates to B16. The experiment in a line: Cytotoxicity against mouse B16 cells by MTT assay. The format is functional, cell-based.
The subject of experiment [3] is A549. The experiment in a line: Cytotoxicity against human A549 cells by MTT assay. The format is functional, cell-based.
Experiment [4] has as its system HL-60. The experiment is described as follows: Cytotoxicity against human HL60 cells by MTT assay. The class given is functional, cell-based.
Experiment [5] concerns SW480. The experiment is described as follows: Cytotoxicity against human SW480 cells by MTT assay. The class given is functional, cell-based.
For experiment [6], the system named is Bel-7402. The experiment in a line: Cytotoxicity against human BEL-7402 cells by MTT assay. The format is functional, cell-based.
Experiment [7] relates to B16. The experiment in a line: Antitumor activity in mouse B16 cell xenografted mouse at 20 mg/kg/day, ip after 4 days. To be noted: 96 h, route intraperitoneal. The class given is functional.
Experiment [8] deals with H22. The experiment is described as follows: Antitumor activity in mouse H22 cell xenografted mouse at 20 mg/kg/day, ip after 4 days. The format is functional. The following applies: 96 h, route intraperitoneal.
For experiment [9], the system named is B16. The experiment is described as follows: Antitumor activity in mouse B16 cell xenografted mouse at 20 mg/kg/day, iv after 4 days. The following applies: B16, 96 h. The format is functional.
The test system of experiment [10] is H22. The experiment in a line: Antitumor activity in mouse H22 cell xenografted mouse at 20 mg/kg/day, iv after 4 days. To be noted: 96 h, read-out: INH.

On to `C=C1C(=O)[C@]23[C@H](OC(=O)C(Cc4ccccc4)NC(=O)CCCCC(=O)O)[C@@H]1CC[C@H]2[C@@]12CO[C@]3(O)[C@@H](O)[C@@H]1C(C)(C)CCC2=O` (stereo partly specified), for which the IC50 in experiment [1] was found to be 7.05 µM; in [2] it was 13.9 µM; in [3], 8.06 µM; in experiment [4], 6.24 µM; in experiment [5] it was 7.3 µM; in experiment [6] (read-out: IC50) it was 12.8 µM.

For `C=C1C(=O)[C@]23[C@H](OC(=O)CN)[C@@H]1CC[C@H]2[C@@]12CO[C@]3(O)[C@@H](O)[C@@H]1C(C)(C)CC[C@@H]2OC(C)=O`, the IC50 is 18.2 µM in experiment [1]; 12.4 µM in experiment [2]; 11 µM in [3]; 12.3 µM in [4]; 22.3 µM in experiment [5]; 17.9 µM in [6] (read-out: IC50).

As for `C=C1C(=O)[C@]23[C@H](OC(=O)CNC(=O)CCC(=O)O)[C@@H]1CC[C@H]2[C@@]12CO[C@]3(O)[C@@H](O)[C@@H]1C(C)(C)CCC2=O`, the half-maximal inhibitory concentration (IC50) in experiment [1] is 15.6 µM; in experiment [2], 8.57 µM; in experiment [3] it was 11.5 µM; in [4], 7.76 µM; in experiment [5], 10.2 µM; in experiment [6] (read-out: IC50) it was 2.09 µM.

As for `C=C1C(=O)[C@]23[C@H](OC(=O)CN)[C@@H]1CC[C@H]2[C@@]12CO[C@]3(O)[C@@H](O)[C@@H]1C(C)(C)CC[C@@H]2OS(=O)(=O)CCC`, the IC50 in experiment [1] turned out to be 15.9 µM; in experiment [2], 21.7 µM; in [3], 16.3 µM; in experiment [4], 19.8 µM; in [5], 24.7 µM; in experiment [6] (read-out: IC50), 20.2 µM.

In the case of `C=C1C(=O)[C@]23[C@H](OC(=O)CN)[C@@H]1CC[C@H]2[C@@]12CO[C@]3(O)[C@@H](O)[C@@H]1C(C)(C)CCC2=O`, the IC50 came to 20.9 µM in experiment [1]; 19.1 µM in [2]; 20.6 µM in [3]; 24.8 µM in experiment [4]; 28.4 µM in experiment [5]; 30.3 µM in [6] (read-out: IC50).

As for `C=C1C(=O)[C@]23[C@H](OC(=O)CNC(=O)/C=C/C(=O)O)[C@@H]1CC[C@H]2[C@@]12CO[C@]3(O)[C@@H](O)[C@@H]1C(C)(C)CC[C@@H]2OS(=O)(=O)CCC`, the IC50 in experiment [1] was 5.52 µM; in [2], 5.66 µM; in [3], 1.33 µM; in experiment [4] it was 1.97 µM; in experiment [5], 14.7 µM; in experiment [6] (read-out: IC50) it was 19.1 µM.

On to `C=C1C(=O)[C@]23[C@H](OC(=O)CNC(=O)CCCCC(=O)O)[C@@H]1CC[C@H]2[C@@]12CO[C@]3(O)[C@@H](O)[C@@H]1C(C)(C)CC[C@@H]2OC(C)=O`, for which the IC50 in experiment [1] came to 13.2 µM; in experiment [2] it was 12.5 µM; in [3], 10.5 µM; in experiment [4] it was 5.3 µM; in experiment [5], 10.7 µM; in [6] (read-out: IC50), 8.26 µM.

Consider `C=C1C(=O)[C@]23[C@H](OC(=O)CNC(=O)/C=C/C(=O)O)[C@@H]1CC[C@H]2[C@@]12CO[C@]3(O)[C@@H](O)[C@@H]1C(C)(C)CC[C@@H]2OC(C)=O`, for which the inhibition in vivo at 20 mg/kg/day in experiment [7] worked out at 69.9%; in experiment [8] it was 64.9%. For the same compound, the IC50 is 2.78 µM in [1]; 0.93 µM in experiment [2]; 2.6 µM in experiment [3]; 0.84 µM in experiment [4]; 2.6 µM in [5]; 1 µM in [6] (read-out: IC50).

As to `C=C1C(=O)[C@]23[C@H](OC(=O)C(N)Cc4ccccc4)[C@@H]1CC[C@H]2[C@@]12CO[C@]3(O)[C@@H](O)[C@@H]1C(C)(C)CCC2=O` (stereo partly specified), the half-inhibitory concentration (IC50) in experiment [1] was 10.5 µM; in experiment [2], 10.2 µM; in experiment [3], 22.2 µM; in [4], 27.5 µM; in [5] it was 15 µM; in [6] (read-out: IC50), 29.6 µM.

With `O=c1[nH]cc(F)c(=O)[nH]1` [FLUOROURACIL], in [9], the inhibition in vivo at 20 mg/kg/day came out at 73.5%. In addition, the IC50 in experiment [1] was determined as 16.4 µM; in [2], 8.73 µM; in [3], 10.8 µM; in [4], 21.4 µM; in experiment [5] it was 13.2 µM; in experiment [6] it was 14.4 µM.

As to `C=C1C(=O)[C@]23[C@H](OC(=O)C(Cc4ccccc4)NC(=O)CCC(=O)O)[C@@H]1CC[C@H]2[C@@]12CO[C@]3(O)[C@@H](O)[C@@H]1C(C)(C)CCC2=O` (stereo partly specified), the inhibition in vivo at 20 mg/kg/day in experiment [7] is 56.6%; in experiment [8] it was 59.1%. For the same compound, the IC50 worked out at 5.96 µM in experiment [1]; 14.8 µM in [2]; 17.1 µM in experiment [3]; 2.31 µM in experiment [4]; 12.9 µM in experiment [5]; 6.5 µM in [6] (read-out: IC50).

As to `C=C1C(=O)[C@]23[C@H](OC(=O)CNC(=O)CCCCC(=O)O)[C@@H]1CC[C@H]2[C@@]12CO[C@]3(O)[C@@H](O)[C@@H]1C(C)(C)CCC2=O`, the IC50 in experiment [1] turned out to be 15.1 µM; in experiment [2] it was 16.4 µM; in [3], 7.47 µM; in experiment [4], 8.65 µM; in experiment [5], 10.2 µM; in [6] (read-out: IC50), 13.8 µM.

As for `C=C1C(=O)[C@]23[C@H](OC(=O)CNC(=O)c4ccccc4C(=O)O)[C@@H]1CC[C@H]2[C@@]12CO[C@]3(O)[C@@H](O)[C@@H]1C(C)(C)CC[C@@H]2OS(=O)(=O)CCC`, the IC50 in [1] is 20.9 µM; in experiment [2] it was 17.6 µM; in [3], 22.7 µM; in [4], 13.8 µM; in experiment [5] it was 25.4 µM; in [6] (read-out: IC50), 39.1 µM.

As for `O=P1(N(CCCl)CCCl)NCCCO1` (stereo unspecified) [CYCLOPHOSPHAMIDE ANHYDROUS], the inhibition in vivo at 20 mg/kg/day in [10] came out at 54.3%.

As for `C=C1C(=O)[C@]23[C@H](OC(=O)CNC(=O)CCCCC(=O)O)[C@@H]1CC[C@H]2[C@@]12CO[C@]3(O)[C@@H](O)[C@@H]1C(C)(C)CC[C@@H]2OS(=O)(=O)CCC`, the IC50 in experiment [1] was 15.3 µM; in [2] it was 13 µM; in experiment [3], 14 µM; in [4], 9.5 µM; in [5], 11.2 µM; in experiment [6] (read-out: IC50), 24.8 µM.

In the case of `C=C1C(=O)[C@]23[C@H](OC(=O)C(Cc4ccccc4)NC(=O)/C=C/C(=O)O)[C@@H]1CC[C@H]2[C@@]12CO[C@]3(O)[C@@H](O)[C@@H]1C(C)(C)CCC2=O` (stereo partly specified), the results for the inhibition in vivo at 20 mg/kg/day in experiment [7] and in [8] were 61.2% and 62.5%, respectively. Besides, the IC50 was 3.02 µM in experiment [1]; 8.22 µM in experiment [2]; 3.46 µM in experiment [3]; 2.07 µM in [4]; 2.89 µM in experiment [5]; 1 µM in [6] (read-out: IC50).

Regarding `C=C1C(=O)[C@]23[C@H](O)[C@H]1CC[C@H]2[C@@]12CO[C@]3(O)[C@@H](O)[C@@H]1C(C)(C)CC[C@@H]2O` [ORIDONIN], the inhibition in vivo at 20 mg/kg/day in experiment [7] came to 45.9%; in experiment [8], 42.7%. The IC50 in experiment [1] was 28.3 µM; in [2] it was 26.2 µM; in experiment [3], 27.2 µM; in experiment [4], 32.8 µM; in experiment [5], 31.4 µM; in experiment [6] (read-out: IC50), 39.8 µM.
